Entries after “also recorded” stand apart in the source; their conditions may differ.
Legend:
arterial smooth muscle = conditions: cited from earlier work
brachial artery = assay: Cuff-based measurement of pulse amplitude (proportional to arterial area) before and after a stimulus; assay type: in vivo, human
Protocol: Three individuals in the age-range of 28-38 were examined. All subjects had Framingham risk scores of 1% or less, and had no history of cardiovascular disease. Each individual was assessed at least three times before and after RH induced by five minutes of suprasystolic cuff occlusion. At least one additional measurement was made using the same protocol, except without cuff inflation. Sensitivity to a 0.4 mg dose of sublingual NG was assessed three times in two individuals.
Sensitivity to a 0.4 mg dose of sublingual NG was assessed three times in two individuals. In the analysis that follows, all of the datasets are pooled by stimulus. This addresses the question: Can the method measure changes in arterial tone due to vasorelaxatory stimuli and with what sensitivity?
A single quantity relating to the recorded pressure data, the pulse amplitude, was studied and it was posited that this is proportional to the arterial area. During the post stimulus interval, pressure data from the cuff were recorded approximately every 80 seconds, for a period of 30 seconds. During each recording interval, the cuff was inflated to 70 mm Hg, which was always below the measured diastolic pressure of the subject. To quantify the observed response, the mean of the pulse quantity (in this case, amplitude) during the response interval was divided by the mean value of the same quantity during the baseline interval. FIG. 10 illustrates the results.
In Table 2, the maximum response for each stimulus is calculated and the statistical significance of the change relative to the NS case (one-tail Student's t test) is evaluated. Values of p<0:05 were considered significant.
(iii) The cuff is inflated to a value Pm, which must be less than the mean arterial pressure, for a period Tm=30 s. During this time interval, we measure and record the pressure fluctuations in the cuff.
v) The stimulus is applied. This is either 1-5 min of cuff occlusion to suprasystolic pressure Ps (for studies of endothelial function) or a dose of sublingual NG (for studies of endothelium-independent vasodilation).
(vi) After Tp=45 s have elapsed following cuff release or drug administration, a series of up to Nr=10 repeat measurement intervals ensue. In each interval, the cuff is inflated to Pm for Tm seconds, after which it is deflated for Tw seconds. This large number of repeat measurements (Nr) is required only when one wishes to record the return of the vessel toward baseline.
(viii) Each post-stimulus response is then compared to the average baseline response, to yield the area-based cFMD metric (Equation 2) defined above. […]
(iv) The maximum of the cFMD metric in Equation 2, analogous to that used for uFMD, expressed directly as a function of the measurement data, is calculated as […]

NO synthase = assay: Single pulse waveforms from the pressure cuff after endothelial stimulation, with NO synthase inhibitor; assay type: in vivo, human; conditions: cuff inflated to 70 mm Hg; FIG. 3
Excerpt: Both the amplitude and slope of the rising edge of the pulse increase markedly after endothelial stimulation.
In an artery with intact endothelial function, both pulse height (maximal cross-sectional arterial area) and compliance (maximum slope of the rising edge) increase markedly over baseline. […] FIG. 4 illustrates how a five minute cuff occlusion and the ensuring reactive hyperemia lead to major increases in area change per pulse and the maximum derivative of the area per pulse. Both metrics return to baseline levels after 20 minutes. FIG. 5 confirms the repeatability of the protocol by illustrating the effects of a series of two cuff occlusion periods. We see from FIG. 6 that only a small slow drift in the measured quantities occurs when no reactive hyperemic stimulus is applied.
A stimulus is then applied to the subject. Any of a number of stimuli expected to alter endothelial function are contemplated. Such stimuli include, for example, occlusion of blood flow, and/or application of one or more drugs to the subject. Illustrative drugs include, for example, drugs that act as NO agonists (e.g. acetylcholine), β2-adrenergic agonists such as albuterol, acoustic/mechanical tissue vibration, transcutaneous low frequency ultrasound (see, e.g., Iida et al. (2006) J. Amer. Coll. Cardiol., 48(3): 532-537), and the like. […]

Compound	smooth muscle dilation elicited (arterial smooth muscle; 400 μg sublingual dose, Feldman et al. (1979), Adams et al. (1998))	typical dilation due to nitroglycerin (arterial smooth muscle; observed at Ptm=PS)	change in metric, NG vs. NS (brachial artery; 400 μg sublingual vs zero dose (no stimulus)) [%]	cDmax % (brachial artery; 400 μg sublingual, Table 5) [%]	Mean ± SEM of maximum response over all data sets (dilation response) (brachial artery; 400 μg sublingual, pooled data sets, Table 5)	Mean ± SEM of maximum Response over all data sets (amplitude response, response/baseline) (brachial artery; 0.4 mg sublingual, cuff inflated to 70 mm Hg, pooled data sets, Table 2)	effect on increase of pulse amplitude and rising-edge slope after endothelial stimulation (NO synthase)
O=[N+]([O-])OCC(CO[N+](=O)[O-])O[N+](=O)[O-] [NG, Nitroglycerin]	maximal smooth muscle dilation	≈ 20%	70	70	1.70 ± 0.036	1.70 ± 0.036	–
COC(=O)[C@@H](N)CCCNC(=N)N[N+](=O)[O-] [L-NAME]	–	–	–	–	–	–	greatly attenuates this response; also recorded: greatly attenuated
